From PubChem BioAssay (NCI)
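Protocol summary: plate cells (96-well), add compound at 5 concentrations, incubate 48 h, interpolate endpoints linearly. GI50: concentration for 50% inhibition of growth. TGI: concentration producing complete growth inhibition.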

system: IGROV1 ovarian; assay: DTP human tumour cell line panel, 48 h

First: COc1ccc(OC)c(NCC(=O)n2nc(/C=C\c3ccc(O)c(OC)c3)cc2/C=C\c2ccc(O)c(OC)c2)c1
Second: COc1ccc(OC)c(/C=C/c2nc(=S)n(-c3ccc(Cl)cc3)[nH]2)c1
The GI50 of the first is 1.5-fold lower: 2.91 µM for the first, 4.38 µM for the second.

First: N#CC(C(=O)C(=O)Nc1c(Cl)cccc1Cl)c1ccccc1 (centres undefined)
Second: N#Cc1nc2c(S(=O)(=O)c3ccc(Cl)cc3)c(N)n(Nc3cccc(Cl)c3)c2nc1C#N
The GI50 of the first is higher: > 100 µM for the first, 0.0385 µM for the second.

Going from CCn1cc(C(=O)O)c(=O)c2cc(F)c(N3CCN(S(=O)(=O)c4cccc5ccccc45)CC3)cc21 to CCN1C(=S)N(CC)C2C1NC(=S)N2/N=C/C=C/c1ccccc1OC (centres undefined), the GI50 falls from 2.47 µM to 0.506 µM (4.9-fold).

With COC(=O)OC1C(O[C@H]2C[C@H]3[C@@H]4CC=C5C[C@@H](O)CC[C@]5(C)[C@H]4CC[C@]3(C)[C@H]2[C@H](C)C(=O)CCC(C)C)OCC(O)C1OC1OCC(O)C(O)C1OC(=O)c1ccc(OC)cc1 (some centres undefined) the GI50 was 0.0106 µM.

First: COc1ccc(OC)c(NCC(=O)n2nc(/C=C\c3ccc(O)c(OC)c3)cc2/C=C\c2ccc(O)c(OC)c2)c1
Second: COc1ccc(OC)c(/C=C/c2nc(=S)n(-c3ccc(Cl)cc3)[nH]2)c1
The TGI of the first is lower: 21 µM for the first, > 100 µM for the second.

Cc1nc2ccccc2nc1CC(=O)C(=O)Nc1ccc(Cl)cc1Cl and Cc1nc(N)nc(CCC(=O)Nc2cccc(C(F)(F)F)c2)c1-c1ccc(Cl)cc1 cannot be ordered by TGI: > 100 µM for the first, > 100 µM for the second.

CC(Br)C(=O)NC(CO)C(=O)O (centres undefined) and COC(=O)CCC(NC(=S)N/N=C/c1cccs1)C(=O)OC (centres undefined) cannot be ordered by TGI: > 100 µM for the first, > 100 µM for the second.

O=C1[C@@H]2C(c3c(Cl)cccc3Cl)=NO[C@@H]2C(=O)N1c1ccc(Cc2ccc(N3C(=O)[C@H]4C(c5c(Cl)cccc5Cl)=NO[C@H]4C3=O)cc2)cc1 and O=C1NC(=O)c2c1n(Cc1ccccc1)c(=O)n2Cc1ccccc1 cannot be ordered by TGI: > 100 µM for the first, > 100 µM for the second.

O=C1NC2=C(CCCCC/C2=N\O)C12CCCCCC2 and C[C@]12Cc3cn[nH]c3C(=O)C1CC[C@@H]1C2CC[C@@]2(C)C1CC[C@@H]2O (some centres undefined) cannot be ordered by TGI: > 100 µM for the first, > 100 µM for the second.

CCc1cccc(C)c1NC(=O)CCc1nc(=S)[nH][nH]1 and CCc1ccccc1NC(=O)c1cccc([N+](=O)[O-])c1O cannot be ordered by TGI: > 100 µM for the first, > 100 µM for the second.

Compared with N#C/C(=C\c1cc(OCc2ccccc2)c(OCc2ccccc2)cn1)C(N)=O, O=C1/C(=C\c2ccccc2)CN(C(=O)CCN2CCCCC2)C/C1=C/c1ccccc1 is lower in TGI: > 100 µM for the first, 4.48 µM for the second.

N#CC(C(=O)C(=O)Nc1c(Cl)cccc1Cl)c1ccccc1 (centres undefined) and O=C(NC1C(=O)NNC1c1cccc([N+](=O)[O-])c1)c1ccccc1 (centres undefined) cannot be ordered by TGI: > 100 µM for the first, > 100 µM for the second.

COC(=O)C1C(C(=O)OC)C2C(=O)C3C(C(=O)OC)C(C(=O)OC)C3C(=O)C12 (centres undefined) and COc1nc2c(c(O)c(C)c(=O)n2OC2OCC(OC(C)=O)C(OC(C)=O)C2OC(C)=O)c(=O)n1C (centres undefined) cannot be ordered by TGI: > 100 µM for the first, > 100 µM for the second.

O=C(NC12CC3CCC1CC(C3)C2)[C@@H]1CCCN1C(=O)OCc1ccccc1 (some centres undefined) and NNC(=O)C(=O)N/N=C1/CCCC1C(=O)CCC(=O)Nc1ccc(Cl)cc1 (centres undefined) cannot be ordered by TGI: > 100 µM for the first, > 100 µM for the second.

First: COc1cc([C@@H]2c3cc4c(cc3[C@@H](NC(=O)c3ccc(C#N)cc3)C3COC(=O)[C@@H]32)OCO4)cc(OC)c1O (some centres undefined)
Second: COc1cc2oc(-c3ccc(O)cc3)cc(=O)c2c(O)c1C1OC(CO)C(O)C(O)C1O (centres undefined)
The TGI of the first is lower: 5.13 µM for the first, > 100 µM for the second.

O=[N+]([O-])c1cccc(C2=NN(c3ccccc3)C3c4cc(Br)ccc4OCC23)c1 (centres undefined) and O=c1/c(=C/c2ccccc2[N+](=O)[O-])sc2nnc(-c3cccnc3)n12 cannot be ordered by TGI: > 100 µM for the first, > 100 µM for the second.

Going from CCn1cc(C(=O)O)c(=O)c2cc(F)c(N3CCN(S(=O)(=O)c4cccc5ccccc45)CC3)cc21 to CCn1c2c(c3ccccc3c1=O)C(=O)c1ccccc1-2, the TGI rises from 7.49 µM to > 100 µM.

Compared with O=[N+]([O-])c1ccc(Cl)c2c([N+](=O)[O-])cccc12, N#Cc1nc2c(S(=O)(=O)c3ccc(Cl)cc3)c(N)n(Nc3cccc(Cl)c3)c2nc1C#N is lower in TGI: > 10 µM for the first, 0.179 µM for the second.

First: COC(=O)/C=C(/C(=O)OC)C1(C)c2cc(C(=O)OC)c(C(=O)OC)c(N)c2C(=N)N1c1ccccc1 (centres undefined)
Second: Cc1ccc(S(=O)(=O)OCC/C(=C\[Si](C)(C)C)c2ccccc2)cc1
The TGI of the first is lower: 76.8 µM for the first, > 100 µM for the second.

CCN1C(=S)N(CC)C2C1NC(=S)N2/N=C/C=C/c1ccccc1OC (centres undefined) and COC(=O)OC1C(O[C@H]2C[C@H]3[C@@H]4CC=C5C[C@@H](O)CC[C@]5(C)[C@H]4CC[C@]3(C)[C@H]2[C@H](C)C(=O)CCC(C)C)OCC(O)C1OC1OCC(O)C(O)C1OC(=O)c1ccc(OC)cc1 (some centres undefined) cannot be ordered by TGI: > 100 µM for the first, > 27.5 µM for the second.

CCOC(=O)c1nc(C)oc1C(F)(F)F was tested, and the TGI was > 100 µM.

system: SR leukemia; assay: DTP human tumour cell line panel, 48 h

CC(Br)C(=O)NC(CO)C(=O)O (centres undefined) and COC(=O)CCC(NC(=S)N/N=C/c1cccs1)C(=O)OC (centres undefined) cannot be ordered by TGI: > 100 µM for the first, > 100 µM for the second.

First: COc1cc(Nc2cnc3ccc(C(F)(F)F)cc3n2)cc(OC)c1OC
Second: Cc1nc(N)nc(CCC(=O)Nc2cccc(C(F)(F)F)c2)c1-c1ccc(Cl)cc1
The TGI of the first is higher: > 100 µM for the first, 56.8 µM for the second.

Going from O=C1NC2=C(CCCCC/C2=N\O)C12CCCCCC2 to O=C1/C(=C\c2ccccc2)CN(C(=O)CCN2CCCCC2)C/C1=C/c1ccccc1, the TGI falls from > 100 µM to 14.5 µM.

CCc1cccc(C)c1NC(=O)CCc1nc(=S)[nH][nH]1 and NNC(=O)C(=O)N/N=C1/CCCC1C(=O)CCC(=O)Nc1ccc(Cl)cc1 (centres undefined) cannot be ordered by TGI: > 100 µM for the first, > 100 µM for the second.

COC(=O)C1C(C(=O)OC)C2C(=O)C3C(C(=O)OC)C(C(=O)OC)C3C(=O)C12 (centres undefined) and COc1nc2c(c(O)c(C)c(=O)n2OC2OCC(OC(C)=O)C(OC(C)=O)C2OC(C)=O)c(=O)n1C (centres undefined) cannot be ordered by TGI: > 100 µM for the first, > 100 µM for the second.

Going from O=C(NC12CC3CCC1CC(C3)C2)[C@@H]1CCCN1C(=O)OCc1ccccc1 (some centres undefined) to COC(=O)/C=C(/C(=O)OC)C1(C)c2cc(C(=O)OC)c(C(=O)OC)c(N)c2C(=N)N1c1ccccc1 (centres undefined), the TGI falls from > 100 µM to 58.5 µM.

COc1cc2oc(-c3ccc(O)cc3)cc(=O)c2c(O)c1C1OC(CO)C(O)C(O)C1O (centres undefined) and Cc1ccc(S(=O)(=O)OCC/C(=C\[Si](C)(C)C)c2ccccc2)cc1 cannot be ordered by TGI: > 100 µM for the first, > 100 µM for the second.

O=c1/c(=C/c2ccccc2[N+](=O)[O-])sc2nnc(-c3cccnc3)n12 and O=[N+]([O-])c1ccc(Cl)c2c([N+](=O)[O-])cccc12 cannot be ordered by TGI: > 100 µM for the first, > 10 µM for the second.

For CCOC(=O)c1nc(C)oc1C(F)(F)F, the TGI was > 100 µM.

In the case of CCN1C(=S)N(CC)C2C1NC(=S)N2/N=C/C=C/c1ccccc1OC (centres undefined), the GI50 is reported as 0.0833 µM.

system: MCF7 breast; assay: DTP human tumour cell line panel, 48 h

Going from COc1ccc(OC)c(NCC(=O)n2nc(/C=C\c3ccc(O)c(OC)c3)cc2/C=C\c2ccc(O)c(OC)c2)c1 to COc1ccc(OC)c(/C=C/c2nc(=S)n(-c3ccc(Cl)cc3)[nH]2)c1, the GI50 rises from 1.61 µM to 4.44 µM (2.8-fold).

Going from CCn1cc(C(=O)O)c(=O)c2cc(F)c(N3CCN(S(=O)(=O)c4cccc5ccccc45)CC3)cc21 to CCN1C(=S)N(CC)C2C1NC(=S)N2/N=C/C=C/c1ccccc1OC (centres undefined), the GI50 falls from 2.72 µM to 0.171 µM (16-fold).

Going from COc1ccc(OC)c(NCC(=O)n2nc(/C=C\c3ccc(O)c(OC)c3)cc2/C=C\c2ccc(O)c(OC)c2)c1 to COc1ccc(OC)c(/C=C/c2nc(=S)n(-c3ccc(Cl)cc3)[nH]2)c1, the TGI rises from 10.4 µM to > 100 µM.

Compared with CC(Br)C(=O)NC(CO)C(=O)O (centres undefined), CCn1cc(C(=O)O)c(=O)c2cc(F)c(N3CCN(S(=O)(=O)c4cccc5ccccc45)CC3)cc21 is lower in TGI: > 100 µM for the first, 9.04 µM for the second.

CCn1c2c(c3ccccc3c1=O)C(=O)c1ccccc1-2 and O=[N+]([O-])c1ccc(Cl)c2c([N+](=O)[O-])cccc12 cannot be ordered by TGI: > 100 µM for the first, > 10 µM for the second.

For CCN1C(=S)N(CC)C2C1NC(=S)N2/N=C/C=C/c1ccccc1OC (centres undefined), the TGI was > 100 µM.
